In patent publication USRE43327E1, “Hydrophobic polyamine analogs and methods for their use” (Aminex Therapeutics, Inc., priority 2001, dated 2012):
pEC50, pIC50: −log10 of the molar value. Where “and” joins values, the source holds several entries; their conditions need not be identical. Identical values can stand only once. Like-named read-outs stand apart in the source and are kept apart here.

Tests used:
Type in all cases: cell-based
[1] = tested on: MDA-MB-231; assay: Growth inhibition assay (MTS/PMS) with DFMO, MDA-MB-231; conditions: in the presence of DFMO (1-5 mM), 1 mM AG, 0.5 μM SPD, six days; repeat determinations; read-out: Cell Line EC50 MDA-MB-231
Protocol: (§1) Medias were obtained from Mediatech, Inc. (Herdon, Va.) and serums from Gibco BRL (Gaithersburg, Md.). 50 U/ml penicillin, 50 μg/ml streptomycin and 2 mM L-glutamine (all from Bio Whittaker, Walkersville, Md.) were included in all cultures. […] When cells were cultured with polyamines or ORI compounds, 1 mM aminoguanidine (AG; Sigma) was included to inhibit serum amine oxidase activity.

[2] = tested on: 4 cell lines (A375, MDA-MB-231, PC-3, SK-OV-3); assay: Growth inhibition with DFMO, average over 4 cell lines; conditions: for pEC50: Table 3, average over cell lines, with DFMO, read-out: AVG. EC50
Protocol: Cells were plated in 96-well plates such that they would be in log growth for the duration of the assay. The day after plating, PAs were added to the cells, and growth, if any, permitted to continue for six days in the presence of 1 mM AG and 0.5 μM SPD to insure that any growth inhibition was not the result of depletion of external polyamines in the media. At the end of the six days, cell growth was measured by MTS/PMS dye assay (Cell Titer 96 Aqueous Non-Radioactive Cell Proliferation Assay; Promega, Madison, Wis.).

[3] = tested on: SK-OV-3; assay: Growth inhibition assay (MTS/PMS) with DFMO, SK-OV-3; conditions: in the presence of DFMO (1-5 mM), 1 mM AG, 0.5 μM SPD, six days; repeat determinations; read-out: Cell Line EC50 SK-OV-3
Protocol: as §1

[4] = tested on: A375; assay: Growth inhibition assay (MTS/PMS) with DFMO, A375; conditions: in the presence of DFMO (1-5 mM), 1 mM AG, 0.5 μM SPD, six days; repeat determinations; read-out: Cell Line EC50 A375
Protocol: as §1

[5] = tested on: PC-3; assay: Growth inhibition assay (MTS/PMS) with DFMO, PC-3; conditions: in the presence of DFMO (1-5 mM), 1 mM AG, 0.5 μM SPD, six days; repeat determinations; read-out: Cell Line EC50 PC-3
Protocol: as §1

[6] = tested on: MDA-MB-231; assay: Growth inhibition assay, PA alone, MDA-MB-231; conditions: PA alone (no DFMO), six days, repeat determinations, read-out: Cell Line IC50 MDA-MB-231
Protocol: as §1

[7] = tested on: PC-3; assay: Growth inhibition assay, PA alone, PC-3; conditions: PA alone (no DFMO), six days, repeat determinations, read-out: Cell Line IC50 PC-3
Protocol: as §1

[8] = tested on: A375; assay: Growth inhibition assay, PA alone, A375; conditions: PA alone (no DFMO), six days, repeat determinations, read-out: Cell Line IC50 A375
Protocol: as §1

[9] = tested on: SK-OV-3; assay: Growth inhibition assay, PA alone, SK-OV-3; conditions: PA alone (no DFMO), six days, repeat determinations, read-out: Cell Line IC50 SK-OV-3
Protocol: as §1

| pEC50 [1] | pEC50 [2] | pEC50 [3] | pEC50 [4] | pEC50 [5] | pIC50 [6] | pIC50 [7] | pIC50 [8] | pIC50 [9] | growth inhibition / EC50 with polyamine synthesis inhibitor, comparison in words ([2]; compared with lysine-spermine conjugates (ORI 1202, ORI 1426) or PAs lacking a hydrophobic domain) | pIC50 ([6]; Homo sapiens, MDA-MB-231, 144 h) | pIC50 ([7]; Homo sapiens, PC-3, 144 h) | pIC50 ([8]; Homo sapiens, A-375, 144 h) | pIC50 ([9]; Homo sapiens, SK-OV-3, 144 h) | Compound |
| --- | --- | --- | --- | --- | --- | --- | --- | --- | --- | --- | --- | --- | --- | --- |
|  |  | < 4.52 | < 4.52 | < 4.52 |  | < 4.52 | < 4.52 | < 4.52 |  |  |  |  |  | CCS(=O)(=O)NCCCC[C@H](N)C(=O)NCCCNCCCCNCCCN [IIA2] |
| 5.59 |  | < 4.52 | 5.92 | 6.14 | < 4.52 | < 4.52 | < 4.52 | < 4.52 |  |  |  |  |  | NCCCNCCCCNCCCNC(=O)[C@@H](N)CCCCNS(=O)(=O)c1ccccc1 [IIA16] |
| > 6.00 |  | 5.59 | 6.20 | 6.74 | 3.22 | < 4.52 | < 4.52 | < 4.52 |  |  |  |  |  | Cc1cc(C)c(S(=O)(=O)NCCCC[C@H](N)C(=O)NCCCNCCCCNCCCN)c(C)c1 [IIA17] |
| 5.85 |  |  |  | 6.34 |  |  |  |  |  |  |  |  |  | NCCCNCCCCNCCCNC(=O)[C@@H](N)CCCCNS(=O)(=O)c1ccc(CNC(=O)c2ccc(Cl)cc2)s1 [IIA21] |
|  |  | < 4.52 | 5.14 | 5.44 |  | < 4.52 | < 4.52 | < 4.52 |  |  |  |  |  | CCS(=O)(=O)NCCCC[C@@H](N)C(=O)NCCCNCCCCNCCCN [IIB2] |

Second part, the compound before the results:

| Compound | pEC50 [1] | pEC50 [2] | pEC50 [3] | pEC50 [4] | pEC50 [5] | pIC50 [6] | pIC50 [7] | pIC50 [8] | pIC50 [9] | growth inhibition / EC50 with polyamine synthesis inhibitor, comparison in words ([2]; compared with lysine-spermine conjugates (ORI 1202, ORI 1426) or PAs lacking a hydrophobic domain) | pIC50 ([6]; Homo sapiens, MDA-MB-231, 144 h) | pIC50 ([7]; Homo sapiens, PC-3, 144 h) | pIC50 ([8]; Homo sapiens, A-375, 144 h) | pIC50 ([9]; Homo sapiens, SK-OV-3, 144 h) |
| --- | --- | --- | --- | --- | --- | --- | --- | --- | --- | --- | --- | --- | --- | --- |
| CCCCCCCCCCCCCCCCC(=O)NCCCC[C@H](N)C(=O)NCCCNCCCCNCCCN [IA3] | 7.49 and 7.74 | 7.28 | 7.01 and 6.78 | > 8.00 and 8.00 | 7.66 |  |  |  |  |  |  |  |  |  |
| CCCCCCCCCCCCCC(=O)NCCCC[C@H](N)C(=O)NCCCNCCCCNCCCN [IA5] | 6.68 | 5.90 | 5.34 | 7.60 | 6.72 | < 4.52 | 5.01 | < 4.52 | 4.67 |  |  |  |  |  |
| CCCCCCCC(=O)NCCCC[C@H](N)C(=O)NCCCNCCCCNCCCN [IA7] | 5.95 | 5.21 | < 4.52 | 5.64 and 5.76 | 5.87 and 6.07 | < 4.52 | < 4.52 | < 4.52 | < 4.52 |  |  |  |  |  |
| CC(=O)NCCCC[C@H](N)C(=O)NCCCNCCCCNCCCN [IA11] | < 4.52 |  | < 4.52 | < 4.52 | 5.64 | < 4.52 | < 4.52 | < 4.52 | < 4.52 | higher EC50 |  |  |  |  |
| NCCCNCCCCNCCCNC(=O)[C@@H](N)CCCCNC(=O)c1ccccc1 [IA24] |  |  |  | 5.81 | < 4.52 |  | < 4.52 | < 4.52 |  |  |  |  |  |  |
| NCCCNCCCCNCCCNC(=O)[C@@H](N)CCCCNC(=O)c1ccc(N)cc1 [IA28] | < 4.52 |  | < 4.52 | 5.78 | 6.01 | < 4.52 | < 4.52 | < 4.52 | < 4.52 |  |  |  |  |  |
| CC(C)[C@@H]1CC[C@@H](C)C[C@H]1OCC(=O)NCCCC[C@@H](N)C(=O)NCCCNCCCCNCCCN [IB38] |  | 4.87 |  |  |  |  |  |  |  |  | 4.19 | 4.55 | 4.67 | 4.22 |
| NCCCNCCCCNCCCNC(=O)[C@H](N)CCCCNC(=O)C(F)(F)C(F)(F)C(F)(F)F [IB39] | 4.28 |  | < 4.00 |  | < 4.00 | 5.37 | < 4.00 |  | < 4.00 |  |  |  |  |  |
| CC(C)(C)OC(=O)NCCCC[C@@H](N)C(=O)NCCCNCCCCNCCCN [IB41] | 4.50 |  |  |  | 5.17 |  |  |  |  |  |  |  |  |  |
| NCCCC[C@H](NC(=O)c1ccccc1)C(=O)NCCCNCCCCNCCCN [ID24] | 5.32 |  | < 4.52 | 5.22 | 5.48 | < 4.52 | < 4.52 | < 4.52 | < 4.52 |  |  |  |  |  |
| NCCCCC(NC(=O)c1ccco1)C(=O)NCCCNCCCCNCCCN (stereo not shown) [ID25] | 5.06 |  | < 4.52 | 5.06 | 5.28 | < 4.52 | < 4.52 | < 4.52 | < 4.52 |  |  |  |  |  |
| CCCCCCCCCCCCCCCC(=O)NCCCC[C@H](NC(=O)CCCCCCCCCCCCCCC)C(=O)NCCCNCCCCNCCCN [IE4] | 6.57 |  | 6.88 |  | 6.70 | 4.75 | 4.67 |  | 5.14 |  |  |  |  |  |
